Activity calls are given as the source filed them. The calls are words filed in the database; no cut-off is given here.
Tests used:
MGC-803 [1] = assay: Antiproliferative activity against human MGC-803 cells assessed as inhibition of cell growth incubated for 24 to 72 hrs by MTT assay; assay type: functional, cell-based
A549 = assay: Antiproliferative activity against human A549 cells assessed as inhibition of cell growth incubated for 24 to 72 hrs by MTT assay; assay type: functional, cell-based; settings: time 24-72 hrs
ECa-109 cell line = assay: Antiproliferative activity against human Eca-109 cells assessed as inhibition of cell growth incubated for 24 to 72 hrs by MTT assay; assay type: functional, cell-based; settings: time 24-72 hrs
MCF7 = assay: Antiproliferative activity against human MCF7 cells assessed as inhibition of cell growth incubated for 24 to 72 hrs by MTT assay; assay type: functional, cell-based; settings: time 24-72 hrs
PC-3 = assay: Antiproliferative activity against human PC-3 cells assessed as inhibition of cell growth incubated for 24 to 72 hrs by MTT assay; assay type: functional, cell-based; settings: time 24-72 hrs
MGC-803 [2] = assay: Antiproliferative activity against human MGC-803 cells assessed as inhibition of cell growth incubated for 48 hrs by MTT assay; assay type: functional, cell-based; settings: MGC-803, 48 h
HGC-27 = assay: Antiproliferative activity against human HGC-27 cells assessed as inhibition of cell growth incubated for 48 hrs by MTT assay; assay type: functional, cell-based; settings: HGC-27, 48 h
BGC-823 = assay: Antiproliferative activity against human BGC-823 cells assessed as inhibition of cell growth incubated for 48 hrs by MTT assay; assay type: functional, cell-based; settings: BGC-823, 48 h
AGS = assay: Antiproliferative activity against human AGS cells assessed as inhibition of cell growth incubated for 48 hrs by MTT assay; assay type: functional, cell-based
MGC-803 [3] = assay: Antiproliferative activity against human MGC-803 cells assessed as inhibition of cell growth upto 2.5 uM by MTT assay; assay type: functional, cell-based; settings: time 24-72 hrs
MGC-803 [4] = assay: Upregulation of E-cadherin expression in human MGC-803 cells at 1 to 4 uM incubated for 48 hrs by Western blot analysis; assay type: functional, cell-based; settings: dose 1-4 µM
MGC-803 [5] = assay: Downregulation of alpha-SMA expression in human MGC-803 cells at 1 to 4 uM incubated for 48 hrs by Western blot analysis; assay type: functional, cell-based; settings: dose 1-4 µM
[6] = Potency index, ratio of andrographolide IC50 to test compound IC50 for antiproliferative activity against human MGC-803 cells assessed as inhibition of cell growth incubated for 24 to 72 hrs by MTT assay; assay type: functional; settings: time 24-72 hrs
[7] = Potency index, ratio of 5-fluorouracil IC50 to test compound IC50 for antiproliferative activity against human MGC-803 cells assessed as inhibition of cell growth incubated for 24 to 72 hrs by MTT assay; assay type: functional; settings: time 24-72 hrs
MGC-803 [8] = assay: Induction of cell cycle arrest in human MGC-803 cells assessed as accumulation of cells at G2/M phase at 0.25 uM incubated for 48 hrs by PI staining based flow cytometry analysis; assay type: functional
MGC-803 [9] = assay: Induction of cell cycle arrest in human MGC-803 cells assessed as accumulation of cells at G2/M phase at 0.5 uM incubated for 48 hrs by PI staining based flow cytometry analysis; assay type: functional
MGC-803 [10] = assay: Induction of cell cycle arrest in human MGC-803 cells assessed as accumulation of cells at G2/M phase at 1 uM incubated for 48 hrs by PI staining based flow cytometry analysis; assay type: functional
MGC-803 [11] = assay: Induction of cell cycle arrest in human MGC-803 cells assessed as reduction in CDC25C level incubated for 24 hrs by Western blot analysis; assay type: functional, cell-based; settings: dose 1-4 µM
MGC-803 [12] = assay: Induction of apoptosis in human MGC-803 cells assessed as viable cells at 1 uM incubated for 48 hrs by Annexin V-FITC/PI staining based flow cytometry analysis (reference value: 93.9%); assay type: functional; settings: read-out: Activity
MGC-803 [13] = assay: Induction of apoptosis in human MGC-803 cells assessed as viable cells at 2 uM incubated for 48 hrs by Annexin V-FITC/PI staining based flow cytometry analysis (reference value: 93.9%); assay type: functional; settings: read-out: Activity
MGC-803 [14] = assay: Induction of apoptosis in human MGC-803 cells assessed as early apoptotic cells at 2 uM incubated for 48 hrs by Annexin V-FITC/PI staining based flow cytometry analysis (reference value: 0.30%); assay type: functional
MGC-803 [15] = assay: Induction of apoptosis in human MGC-803 cells assessed as late apoptotic cells at 2 uM incubated for 48 hrs by Annexin V-FITC/PI staining based flow cytometry analysis (reference value: 0.98%); assay type: functional
MGC-803 [16] = assay: Induction of apoptosis in human MGC-803 cells assessed as necrotic cells at 2 uM incubated for 48 hrs by Annexin V-FITC/PI staining based flow cytometry analysis (reference value: 0.83%); assay type: functional
MGC-803 [17] = assay: Induction of apoptosis in human MGC-803 cells assessed as viable cells at 4 uM incubated for 48 hrs by Annexin V-FITC/PI staining based flow cytometry analysis (reference value: 93.9%); assay type: functional; settings: read-out: Activity
MGC-803 [18] = assay: Induction of apoptosis in human MGC-803 cells assessed as late apoptotic cells at 4 uM incubated for 48 hrs by Annexin V-FITC/PI staining based flow cytometry analysis (reference value: 0.98%); assay type: functional
MGC-803 [19] = assay: Induction of ROS accumulation in human MGC-803 cells assessed as increase in fluorescence intensity at 1 to 4 uM incubated for 48 min by DCFH-DA and PI staining based microscopic analysis; assay type: functional, cell-based; settings: dose 1-4 µM
MGC-803 [20] = assay: Induction of apoptosis in human MGC-803 cells assessed as upregulation of Bax expression at 1 to 4 uM incubated for 24 hrs by Western blot analysis; assay type: functional, cell-based; settings: dose 1-4 µM
MGC-803 [21] = assay: Induction of apoptosis in human MGC-803 cells assessed as upregulation of cleaved caspase-3 expression at 1 to 4 uM incubated for 24 hrs by Western blot analysis; assay type: functional, cell-based; settings: dose 1-4 µM
MGC-803 [22] = assay: Induction of apoptosis in human MGC-803 cells assessed as upregulation of cleaved PARP expression at 1 to 4 uM incubated for 24 hrs by Western blot analysis; assay type: functional, cell-based; settings: dose 1-4 µM
MGC-803 [23] = assay: Downregulation of c-FOS mRNA level in human MGC-803 at 4 uM incubated for 24 hrs by RT-qPCR analysis; assay type: functional, cell-based
MGC-803 [24] = assay: Downregulation of c-jun level in human MGC-803 cells at 4 uM incubated for 24 hrs by immunoblotting analysis; assay type: functional, cell-based
MGC-803 [25] = assay: Inhibition of ERK phosphorylation in human MGC-803 cells at 4 uM measured after 24 hrs by Western blot analysis; assay type: cell-based
MGC-803 [26] = assay: Downregulation of FABP3 mRNA level in human MGC-803 cells at 4 uM incubated for 24 hrs by RT-qPCR analysis; assay type: functional, cell-based
MGC-803 [27] = assay: Downregulation of ACSS2 mRNA level in human MGC-803 cells at 4 uM incubated for 24 hrs by RT-qPCR analysis; assay type: functional, cell-based
MGC-803 [28] = assay: Lipid-lowering activity in human MGC-803 cells assessed as reduction in lipid droplet accumulation by Oil Red O staining based analysis; assay type: functional, cell-based; settings: dose 1-4 µM
MGC-803 [29] = assay: Lipid-lowering activity in human MGC-803 cells assessed as reduction in lipid size by Oil Red O staining based analysis; assay type: functional, cell-based; settings: dose 1-4 µM
MGC-803 [30] = assay: Antitumor activity against human MGC-803 cells xenografted in BALB/c mouse assessed as inhibition of tumor growth at 25 mg/kg, IG administered for 14 days; assay type: functional; settings: MGC-803, po, 336 h, time 14 day, read-out: TGI
MGC-803 [31] = assay: Antitumor activity against human MGC-803 cells xenografted in BALB/c mouse assessed as inhibition of tumor growth at 50 mg/kg, IG administered for 14 days; assay type: functional; settings: MGC-803, po, 336 h, time 14 day, read-out: TGI

IC50 (MGC-803 [1]): 2.31 µM
IC50 (MGC-803 [2]): 3.56 µM
IC50 (BGC-823): 38 µM
IC50 (AGS): 5.24 µM
SMILES: C=C1CC[C@@H]2[C@](C)(CO)[C@H](O)CC[C@@]2(C)[C@@H]1/C=C/C1=CC(=C/c2ccc(C)cc2)/NC1=O
Activity (MGC-803 [1]; time 24-72 hrs): Dose-dependent-effect
Activity (A549): inactive
Activity (ECa-109 cell line): inactive
Activity (MCF7): inactive
Activity (PC-3): inactive
IC50 (HGC-27): 6.5 µM
Activity (MGC-803 [3]): Time-dependent-effect
Activity (MGC-803 [4]): Active
Activity (MGC-803 [5]): Active
Ratio IC50 [6]: ~14
Ratio IC50 [7]: ~8
Activity (MGC-803 [8]): 9.59%
Activity (MGC-803 [9]): 14.5%
Activity (MGC-803 [10]): 25.4%
Activity (MGC-803 [11]): Dose-dependent-effect
viability at 1 µM (MGC-803 [12]): 71.9%
viability at 2 µM (MGC-803 [13]): 40.2%
Activity (MGC-803 [14]): 5.47%
Activity (MGC-803 [15]): 41.5%
Activity (MGC-803 [16]): 12.9%
viability at 4 µM (MGC-803 [17]): 16%
Activity (MGC-803 [18]): 47.5%
Activity (MGC-803 [19]): Active
Activity (MGC-803 [20]): Active
Activity (MGC-803 [21]): Active
Activity (MGC-803 [22]): Active
Activity (MGC-803 [23]): Active
Activity (MGC-803 [24]): Active
inhibition (MGC-803 [25]): Active
Activity (MGC-803 [26]): Active
Activity (MGC-803 [27]): Active
Activity (MGC-803 [28]): Dose-dependent-effect
Activity (MGC-803 [29]): Dose-dependent-effect
inhibition in vivo at 25 mg/kg (MGC-803 [30]): 20%
inhibition in vivo at 50 mg/kg (MGC-803 [31]): 50%
